Activity calls are given as the source filed them.
How the values were obtained:
[1] = target: 5-hydroxytryptamine receptor 1A (Homo sapiens) (UniProt P08908); assay: 5HT1A/HU Eurofins-Panlabs selectivity data (BI); settings: Compound concentration 10.0 uM
[2] = target: T1, 5-hydroxytryptamine receptor 3A (Homo sapiens) (UniProt P46098); assay: 5HT3/HU Eurofins-Panlabs selectivity data (BI); settings: Compound concentration 10.0 uM
T1 sequence (whole entry): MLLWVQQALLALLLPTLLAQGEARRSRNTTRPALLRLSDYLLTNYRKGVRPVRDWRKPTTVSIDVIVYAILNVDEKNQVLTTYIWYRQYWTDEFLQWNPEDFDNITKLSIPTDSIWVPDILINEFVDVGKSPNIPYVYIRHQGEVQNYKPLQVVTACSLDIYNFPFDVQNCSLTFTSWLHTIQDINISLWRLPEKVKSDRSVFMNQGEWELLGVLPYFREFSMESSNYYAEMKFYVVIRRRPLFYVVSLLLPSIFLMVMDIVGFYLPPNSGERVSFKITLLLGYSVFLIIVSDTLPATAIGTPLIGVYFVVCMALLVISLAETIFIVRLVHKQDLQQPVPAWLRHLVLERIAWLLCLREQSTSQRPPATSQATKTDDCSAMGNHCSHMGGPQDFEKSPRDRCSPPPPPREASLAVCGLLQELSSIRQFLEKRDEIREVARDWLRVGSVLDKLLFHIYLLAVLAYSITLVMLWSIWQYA

[3] = target: Adenosine receptor A3 (Homo sapiens) (UniProt P0DMS8); assay: A3/H Eurofins-Panlabs selectivity data (BI); settings: Compound concentration 10.0 uM
Chain of Adenosine receptor A3 (Homo sapiens) (P0DMS8 whole entry): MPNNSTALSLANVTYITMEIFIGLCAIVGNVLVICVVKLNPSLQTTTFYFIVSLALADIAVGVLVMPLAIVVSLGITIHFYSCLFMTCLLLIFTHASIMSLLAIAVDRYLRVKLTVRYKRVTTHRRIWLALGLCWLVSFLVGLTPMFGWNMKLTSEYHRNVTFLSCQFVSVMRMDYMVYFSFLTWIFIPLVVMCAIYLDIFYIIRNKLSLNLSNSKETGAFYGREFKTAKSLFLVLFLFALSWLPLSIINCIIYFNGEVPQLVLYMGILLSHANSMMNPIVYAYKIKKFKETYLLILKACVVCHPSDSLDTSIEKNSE

[4] = target: T2, Alpha-2A adrenergic receptor (Homo sapiens) (UniProt P08913); assay: ALPHA2A/H Eurofins-Panlabs selectivity data (BI); settings: Compound concentration 10.0 uM
T2 sequence (whole entry): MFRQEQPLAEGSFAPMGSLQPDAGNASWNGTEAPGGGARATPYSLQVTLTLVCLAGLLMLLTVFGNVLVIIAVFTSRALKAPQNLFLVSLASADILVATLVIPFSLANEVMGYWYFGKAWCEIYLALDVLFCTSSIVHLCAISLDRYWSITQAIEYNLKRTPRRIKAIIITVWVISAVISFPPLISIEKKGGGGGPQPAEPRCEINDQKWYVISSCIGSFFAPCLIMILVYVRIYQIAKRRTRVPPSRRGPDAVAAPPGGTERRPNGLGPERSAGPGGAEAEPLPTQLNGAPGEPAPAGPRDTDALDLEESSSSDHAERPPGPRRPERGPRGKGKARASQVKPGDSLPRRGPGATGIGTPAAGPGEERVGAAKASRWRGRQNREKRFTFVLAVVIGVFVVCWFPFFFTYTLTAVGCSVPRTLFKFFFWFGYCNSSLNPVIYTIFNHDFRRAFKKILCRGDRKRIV

[5] = target: Beta-2 adrenergic receptor (Homo sapiens) (UniProt P07550); assay: BETA2/HU Eurofins-Panlabs selectivity data (BI); settings: Compound concentration 10.0 uM
Chain of Beta-2 adrenergic receptor (Homo sapiens) (P07550 whole entry, looked up): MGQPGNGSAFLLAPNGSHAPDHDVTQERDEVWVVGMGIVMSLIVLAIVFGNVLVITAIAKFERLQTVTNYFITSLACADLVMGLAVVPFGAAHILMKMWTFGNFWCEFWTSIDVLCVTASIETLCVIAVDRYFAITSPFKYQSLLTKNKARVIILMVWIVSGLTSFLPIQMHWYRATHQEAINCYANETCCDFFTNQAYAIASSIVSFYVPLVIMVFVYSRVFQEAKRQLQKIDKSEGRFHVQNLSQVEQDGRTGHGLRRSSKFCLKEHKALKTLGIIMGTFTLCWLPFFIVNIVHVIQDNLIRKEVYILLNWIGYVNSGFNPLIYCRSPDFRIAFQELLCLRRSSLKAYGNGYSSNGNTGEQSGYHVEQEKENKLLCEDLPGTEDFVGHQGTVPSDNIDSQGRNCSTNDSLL

[6] = target: Cysteinyl leukotriene receptor 1 (Homo sapiens) (UniProt Q9Y271); assay: CYSLT1_HS Eurofins-Panlabs selectivity data (BI); settings: Compound concentration 10.0 uM
[7] = target: D(2) dopamine receptor (Homo sapiens) (UniProt P14416); assay: D2S/HU Eurofins-Panlabs selectivity data (BI); settings: Compound concentration 10.0 uM
Chain of D(2) dopamine receptor (Homo sapiens) (P14416 whole entry): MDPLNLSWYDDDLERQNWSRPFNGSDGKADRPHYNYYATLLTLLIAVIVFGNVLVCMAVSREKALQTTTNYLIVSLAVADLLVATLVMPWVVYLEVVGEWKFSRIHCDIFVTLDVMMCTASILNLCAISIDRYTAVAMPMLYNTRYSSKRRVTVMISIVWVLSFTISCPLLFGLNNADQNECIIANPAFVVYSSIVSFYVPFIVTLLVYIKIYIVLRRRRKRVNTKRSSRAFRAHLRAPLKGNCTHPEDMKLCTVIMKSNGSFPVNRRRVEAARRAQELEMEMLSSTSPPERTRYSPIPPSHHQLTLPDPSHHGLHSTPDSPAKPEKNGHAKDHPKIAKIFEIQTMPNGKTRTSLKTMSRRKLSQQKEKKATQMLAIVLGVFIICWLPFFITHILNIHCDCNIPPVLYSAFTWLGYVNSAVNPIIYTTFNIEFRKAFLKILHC

[8] = target: Sodium-dependent dopamine transporter (Homo sapiens, UniProt Q01959); assay: DATRANS/H Eurofins-Panlabs selectivity data (BI); settings: Compound concentration 10.0 uM
Chain of Sodium-dependent dopamine transporter (Q01959 whole entry): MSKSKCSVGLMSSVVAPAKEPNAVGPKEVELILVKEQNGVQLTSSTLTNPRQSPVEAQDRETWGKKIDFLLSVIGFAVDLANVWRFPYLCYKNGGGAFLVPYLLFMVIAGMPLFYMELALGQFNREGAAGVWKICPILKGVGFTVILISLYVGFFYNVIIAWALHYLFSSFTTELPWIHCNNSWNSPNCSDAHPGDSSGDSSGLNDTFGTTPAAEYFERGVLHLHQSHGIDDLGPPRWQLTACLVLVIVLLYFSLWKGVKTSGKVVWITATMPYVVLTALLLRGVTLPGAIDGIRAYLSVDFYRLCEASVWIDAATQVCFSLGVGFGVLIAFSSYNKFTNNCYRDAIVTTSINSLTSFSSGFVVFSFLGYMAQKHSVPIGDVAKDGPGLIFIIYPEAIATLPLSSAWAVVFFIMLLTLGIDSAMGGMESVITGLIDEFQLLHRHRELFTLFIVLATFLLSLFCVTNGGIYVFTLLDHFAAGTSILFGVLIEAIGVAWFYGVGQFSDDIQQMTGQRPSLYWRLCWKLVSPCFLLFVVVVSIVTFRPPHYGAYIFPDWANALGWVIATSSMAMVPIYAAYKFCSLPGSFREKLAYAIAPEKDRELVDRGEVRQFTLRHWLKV

[9] = target: Endothelin receptor type B (Homo sapiens) (UniProt P24530); assay: ETB/HUM Eurofins-Panlabs selectivity data (BI); settings: Compound concentration 10.0 uM
[10] = target: Gamma-aminobutyric acid receptor subunit alpha-1 (Rattus norvegicus) (UniProt P62813); assay: GABAA MUSCIMOL CENT Eurofins-Panlabs selectivity data (BI); settings: Compound concentration 10.0 uM
Chain of Gamma-aminobutyric acid receptor subunit alpha-1 (Rattus norvegicus) (P62813 whole entry): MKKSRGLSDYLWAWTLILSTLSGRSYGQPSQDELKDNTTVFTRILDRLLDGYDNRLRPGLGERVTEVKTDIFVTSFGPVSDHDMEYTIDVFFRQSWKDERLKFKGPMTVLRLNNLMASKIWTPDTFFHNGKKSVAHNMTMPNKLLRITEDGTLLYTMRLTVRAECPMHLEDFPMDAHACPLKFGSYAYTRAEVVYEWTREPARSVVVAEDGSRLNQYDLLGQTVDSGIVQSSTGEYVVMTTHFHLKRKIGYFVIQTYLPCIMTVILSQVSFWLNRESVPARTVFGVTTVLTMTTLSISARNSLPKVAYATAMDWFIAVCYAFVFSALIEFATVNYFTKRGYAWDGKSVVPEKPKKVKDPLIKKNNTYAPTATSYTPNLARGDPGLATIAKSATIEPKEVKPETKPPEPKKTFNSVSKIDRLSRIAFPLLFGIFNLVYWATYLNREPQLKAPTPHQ

[11] = target: Pyroglutamylated RF-amide peptide receptor (Homo sapiens) (UniProt Q96P65); assay: GPR103 Eurofins-Panlabs selectivity data (BI); settings: Compound concentration 10.0 uM
[12] = target: T3, Muscarinic acetylcholine receptor M2 (Homo sapiens) (UniProt P08172); assay: M2/HU Eurofins-Panlabs selectivity data (BI)
T3 sequence (whole entry): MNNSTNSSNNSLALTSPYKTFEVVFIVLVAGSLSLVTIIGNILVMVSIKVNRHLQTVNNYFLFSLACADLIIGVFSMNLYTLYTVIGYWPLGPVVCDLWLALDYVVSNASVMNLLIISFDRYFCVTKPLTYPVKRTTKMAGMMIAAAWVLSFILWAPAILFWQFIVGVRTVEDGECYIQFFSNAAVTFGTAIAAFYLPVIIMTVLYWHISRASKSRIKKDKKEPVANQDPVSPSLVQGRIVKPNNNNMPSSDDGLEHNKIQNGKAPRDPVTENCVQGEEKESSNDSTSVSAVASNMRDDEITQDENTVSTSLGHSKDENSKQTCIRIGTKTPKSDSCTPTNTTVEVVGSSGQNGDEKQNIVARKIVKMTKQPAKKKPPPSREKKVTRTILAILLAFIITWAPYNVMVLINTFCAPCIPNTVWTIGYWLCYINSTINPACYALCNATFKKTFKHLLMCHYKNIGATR

[13] = target: Mu-type opioid receptor (Homo sapiens) (UniProt P35372); assay: MU/HU Eurofins-Panlabs selectivity data (BI); settings: Compound concentration 10.0 uM
Chain of Mu-type opioid receptor (Homo sapiens) (P35372 whole entry): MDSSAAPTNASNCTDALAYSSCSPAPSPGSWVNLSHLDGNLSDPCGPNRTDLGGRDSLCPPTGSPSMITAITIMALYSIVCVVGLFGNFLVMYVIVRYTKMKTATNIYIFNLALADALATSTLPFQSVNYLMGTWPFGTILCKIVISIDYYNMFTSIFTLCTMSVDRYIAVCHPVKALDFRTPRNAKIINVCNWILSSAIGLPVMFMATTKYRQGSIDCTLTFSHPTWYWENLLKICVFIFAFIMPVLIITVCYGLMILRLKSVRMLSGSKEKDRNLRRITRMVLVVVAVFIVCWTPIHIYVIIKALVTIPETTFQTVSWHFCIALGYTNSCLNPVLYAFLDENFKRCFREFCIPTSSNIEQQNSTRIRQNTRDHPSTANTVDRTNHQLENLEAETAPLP

[14] = target: Sodium channel alpha subunit (site 2) (Homo sapiens, UniProt P35498+P35499+Q01118+Q14524+Q15858+Q99250+Q9NY46+Q9UI33+Q9UQD0+Q9Y5Y9); assay: NA+/SITE2ATG Eurofins-Panlabs selectivity data (BI); assay type: protein assay, Cavia porcellus; parameters: mode of action antagonist; settings: guinea pig; compound concentration 30 uM; read-out: % Ctrl
[15] = target: Acetylcholine receptor subunit alpha (Homo sapiens) (UniProt P02708); assay: NACH/H Eurofins-Panlabs selectivity data (BI); settings: Compound concentration 10.0 uM
[16] = target: Nicotinic acetylcholine receptor alpha-1/beta-1 (Homo sapiens) (UniProt P02708+P11230); assay: NACH_BS_N/H Eurofins-Panlabs selectivity data (BI); assay type: protein-complex assay; settings: Compound concentration 10.0 uM
[17] = target: Androgen receptor (Rattus norvegicus) (UniProt P15207); assay: TESTOST/RA Eurofins-Panlabs selectivity data (BI); settings: Compound concentration 10.0 uM
Chain of Androgen receptor (Rattus norvegicus) (P15207 whole entry S389L): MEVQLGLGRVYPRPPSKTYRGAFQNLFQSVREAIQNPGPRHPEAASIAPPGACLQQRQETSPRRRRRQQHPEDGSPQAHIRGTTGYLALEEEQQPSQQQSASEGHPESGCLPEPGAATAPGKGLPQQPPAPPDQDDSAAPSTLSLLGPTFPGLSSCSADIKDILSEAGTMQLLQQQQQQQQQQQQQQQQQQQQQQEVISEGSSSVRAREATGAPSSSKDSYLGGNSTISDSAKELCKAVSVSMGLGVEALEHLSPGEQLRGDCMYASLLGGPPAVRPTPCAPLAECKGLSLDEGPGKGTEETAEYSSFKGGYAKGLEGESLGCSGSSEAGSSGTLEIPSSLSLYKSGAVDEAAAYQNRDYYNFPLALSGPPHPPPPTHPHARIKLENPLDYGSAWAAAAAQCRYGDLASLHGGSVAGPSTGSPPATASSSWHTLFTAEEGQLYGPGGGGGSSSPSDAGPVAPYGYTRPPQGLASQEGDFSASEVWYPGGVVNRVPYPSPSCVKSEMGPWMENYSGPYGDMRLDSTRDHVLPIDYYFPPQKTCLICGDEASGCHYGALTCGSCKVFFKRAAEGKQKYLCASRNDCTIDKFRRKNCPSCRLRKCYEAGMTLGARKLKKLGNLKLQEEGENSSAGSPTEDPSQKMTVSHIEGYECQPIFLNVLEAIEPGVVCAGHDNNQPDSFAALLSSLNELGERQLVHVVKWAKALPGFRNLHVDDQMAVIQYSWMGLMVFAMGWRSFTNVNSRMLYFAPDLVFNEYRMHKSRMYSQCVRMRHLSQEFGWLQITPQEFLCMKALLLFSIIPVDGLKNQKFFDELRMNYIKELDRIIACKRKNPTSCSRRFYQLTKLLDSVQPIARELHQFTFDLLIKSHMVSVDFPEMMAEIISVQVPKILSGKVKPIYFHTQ

[18] = target: 5-hydroxytryptamine receptor 5A (Homo sapiens) (UniProt P47898); settings: Compound concentration 10.0 uM
Chain of 5-hydroxytryptamine receptor 5A (Homo sapiens) (P47898 whole entry): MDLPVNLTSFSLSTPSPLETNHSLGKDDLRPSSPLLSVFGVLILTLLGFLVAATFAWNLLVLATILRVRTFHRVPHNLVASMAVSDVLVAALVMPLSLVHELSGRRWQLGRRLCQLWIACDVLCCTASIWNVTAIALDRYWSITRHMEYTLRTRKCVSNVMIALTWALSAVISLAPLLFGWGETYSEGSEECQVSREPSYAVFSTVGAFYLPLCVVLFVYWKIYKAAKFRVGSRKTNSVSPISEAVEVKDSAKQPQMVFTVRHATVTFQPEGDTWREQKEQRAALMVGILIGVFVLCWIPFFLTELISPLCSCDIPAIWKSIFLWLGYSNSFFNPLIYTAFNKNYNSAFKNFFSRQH

[19] = target: Beta-1 adrenergic receptor (Homo sapiens) (UniProt P08588); settings: Compound concentration 10.0 uM
[20] = target: Muscarinic acetylcholine receptor M3 (Homo sapiens) (UniProt P20309); settings: Compound concentration 10.0 uM
[21] = target: ATP-sensitive inward rectifier potassium channel 1 isoform X1 (Mesocricetus auratus) (UniProt A0A1U8CU73); settings: Compound concentration 10.0 uM
Chain of ATP-sensitive inward rectifier potassium channel 1 isoform X1 (Mesocricetus auratus) (A0A1U8CU73 as listed by the source): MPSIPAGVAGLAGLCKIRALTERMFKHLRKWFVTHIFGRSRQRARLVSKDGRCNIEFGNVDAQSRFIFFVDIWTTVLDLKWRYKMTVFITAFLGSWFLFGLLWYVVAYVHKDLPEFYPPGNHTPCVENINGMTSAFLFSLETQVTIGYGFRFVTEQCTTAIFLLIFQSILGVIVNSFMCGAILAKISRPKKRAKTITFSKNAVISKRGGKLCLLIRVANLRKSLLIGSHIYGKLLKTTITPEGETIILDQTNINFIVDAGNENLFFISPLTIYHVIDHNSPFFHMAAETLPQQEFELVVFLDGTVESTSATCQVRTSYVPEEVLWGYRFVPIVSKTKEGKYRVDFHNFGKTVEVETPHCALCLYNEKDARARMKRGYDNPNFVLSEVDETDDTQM

[22] = target: Glutamate receptor ionotropic, kainate 1 (Rattus norvegicus) (UniProt P22756); settings: Compound concentration 10.0 uM
[23] = Rat platelet swelling inhibition (rPSA) assay
[24] = target: Sodium/hydrogen exchanger 1 (Homo sapiens, UniProt P19634); assay: pHi change assay with SLC9A1

Chain of 5-hydroxytryptamine receptor 1A (Homo sapiens) (P08908 whole entry): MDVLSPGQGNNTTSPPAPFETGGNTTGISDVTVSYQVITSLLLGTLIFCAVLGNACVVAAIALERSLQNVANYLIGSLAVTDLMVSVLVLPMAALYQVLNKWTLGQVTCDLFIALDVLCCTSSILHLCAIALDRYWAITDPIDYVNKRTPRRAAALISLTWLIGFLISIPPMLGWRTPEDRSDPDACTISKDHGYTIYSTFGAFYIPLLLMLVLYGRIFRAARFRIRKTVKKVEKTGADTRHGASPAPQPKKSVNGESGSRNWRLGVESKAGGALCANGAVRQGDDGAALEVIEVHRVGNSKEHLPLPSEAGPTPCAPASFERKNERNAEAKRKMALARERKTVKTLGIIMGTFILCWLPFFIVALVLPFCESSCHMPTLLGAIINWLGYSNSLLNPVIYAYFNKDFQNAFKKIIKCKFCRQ

CC(=O)N1CCC(c2ccc(C(=O)NC(=N)N)cc2C(F)(F)F)CC1 [BI 9627]
active: residual activity ([12]; Compound concentration 3.0 uM) 48% | residual activity ([12]; Compound concentration 10.0 uM) 33% | residual activity ([12]; Compound concentration 30.0 uM) 11% | IC50 [23] 0.138 µM
inactive: residual activity [1] 82% | residual activity [2] 98% | residual activity [3] 105% | residual activity [4] 93% | residual activity [5] 102% | residual activity [6] 95% | residual activity [7] 110% | residual activity [8] 101% | residual activity [9] 114% | residual activity [10] 89% | residual activity [11] 92% | residual activity ([12]; Compound concentration 0.03 uM) 102% | residual activity ([12]; Compound concentration 0.1 uM) 108% | residual activity ([12]; Compound concentration 0.3 uM) 71% | residual activity ([12]; Compound concentration 1.0 uM) 70% | residual activity [13] 91% | residual activity [15] 102% | residual activity [16] 100% | residual activity [17] 95% | inhibition [18] -4.89% | inhibition [19] -9.29% | inhibition [20] 12.1% | residual activity [21] 96% | residual activity [22] 96%
100% (not active): activity at 30 µM [14]

CC(=O)N1CCC(c2ccc(C(=O)NC3=NCCN3)cc2C(F)(F)F)CC1 [BI 0054]
> 10 µM (not active): IC50 [24]

Source: ChEMBL document CHEMBL4507279, “Data for DCP probe BI-9627” (2021)
